Experimental data from patent US9987287B2, “Orally disintegrating solid dosage unit containing an estetrol component” (Donesta Bioscience B.V., priority 2013, dated 2018).

Experiments:
[1] = Dissolution into saliva, anhydrous vs monohydrate; format: physicochemical; conditions: compared with estetrol monohydrate
[2] = humans; cited from earlier work
[3] = test system: DMBA mammary tumour model; conditions: extent and dose level similar to tamoxifen and to ovariectomy; cited from earlier work
[4] = test system: estrogen receptors; conditions: in vitro; cited from earlier work
[5] = test system: human breast cancer cells; conditions: in the presence of 17β-estradiol, in vitro; cited from earlier work
[6] = target: T1, sex hormone binding globulin (SHBG) (Homo sapiens, UniProt P04278); conditions: cited from earlier work
T1 sequence (P04278 30-402): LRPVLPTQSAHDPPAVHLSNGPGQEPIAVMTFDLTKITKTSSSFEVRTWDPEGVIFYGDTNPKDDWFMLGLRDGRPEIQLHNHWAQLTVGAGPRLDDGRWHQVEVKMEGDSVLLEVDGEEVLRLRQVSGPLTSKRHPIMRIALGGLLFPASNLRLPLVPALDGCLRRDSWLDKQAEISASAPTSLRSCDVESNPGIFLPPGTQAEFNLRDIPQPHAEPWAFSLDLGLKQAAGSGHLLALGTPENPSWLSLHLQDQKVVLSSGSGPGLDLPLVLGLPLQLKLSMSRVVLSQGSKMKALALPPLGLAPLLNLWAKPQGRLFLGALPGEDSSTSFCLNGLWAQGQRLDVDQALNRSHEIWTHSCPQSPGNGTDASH

[7] = Randomized, open-label, single dose, two-period, cross-over pharmacokinetic study, sublingual vs oral estetrol; format: in vivo, healthy female postmenopausal volunteers; conditions: 10 mg single dose
Method: A randomized, open-label, single dose, two-period, cross-over, pharmacokinetic study is conducted to compare sublingual bioavailability of 10 mg estetrol administered in two 100 mg tablets (each containing 5 mg estetrol and having the same composition as the tablets described in Example 7) with oral availability of estetrol contained in a 83 mg tablet containing 10 mg estetrol. These tablets are administered sublingually and orally to healthy female postmenopausal volunteers under fasting conditions.
Twelve healthy postmenopausal female subjects are selected on the basis of the following criteria: Caucasian race, age of 45-65 years (inclusive), nonsmokers or past smokers (at least 6 months before dosing), body-mass index (BMI)=18.5 to 30 kg/m^2 (inclusive at the time of the screening).
At the start of the first and the second period of the study, between 07:00 am and 07:28 am, 6 subjects receive a single dose of the sublingual formulation of estetrol by administering two estetrol tablets (tablet weight 100 mg; 5 mg estetrol each) and 6 subjects receive a single oral dose of the oral estetrol formulation by administering one estetrol tablet (tablet weight 83 mg; 10 mg estetrol), ingested together with 200 ml water.
Subjects are required to fast for at least 10 hours prior to tablet administration and for at least 4 hours after administration. Drinking of water or beverages is not permitted within 1 hour before the drug administration. Subjects receive 200 ml of water 1 hour prior to and 2 hours after tablet administration. Subjects are free to drink water and fruit tea from 4 hours following the tablet administration. Standardized meals are provided 10.5 hours before and 4, 6, 9, and 13 hours after tablet administration.
The estetrol concentration in the collected blood samples is determined by means of HPLC/MS/MS. The concentrations of glucuronided estetrol (D-ring) in the urine samples is also determined with the help of HPLC/MS/MS.

[8] = test system: production of SHBG; conditions: in vitro; cited from earlier work
[9] = dose-dependent; cited from earlier work

SMILES | Rate of dissolution into saliva [1] | Hygroscopicity | Oral bioavailability [2] | Terminal elimination half-life [2] | Tumour development in DMBA mammary tumour model [3] | Binding selectivity to estrogen receptors [4] | Effect in human breast cancer cells [5] | Binding to SHBG [6] | Bioavailability of sublingually administered estetrol versus orally administered estetrol ([7]; fasting, sublingual two 100 mg tablets (5 mg each, composition of Example 7) vs oral 83 mg tablet) | Onset of bioavailability, sublingual versus oral ([7]; fasting, sublingual two 100 mg tablets vs oral 83 mg tablet) | Impact on a liver function parameter, sublingual ([7]; sublingual tablets vs oral tablet) | Stimulation of SHBG production [8] | Estrogenic effects in rat models [9]
C[C@]12CC[C@@H]3c4ccc(O)cc4CC[C@H]3[C@@H]1[C@@H](O)[C@@H](O)[C@@H]2O [Anhydrous estetrol, estetrol] | dissolves more rapidly into saliva than estetrol monohydrate | highly hygroscopic |  |  |  |  |  |  |  |  |  |  | 
C[C@]12CC[C@@H]3c4ccc(O)cc4CC[C@H]3[C@@H]1[C@@H](O)[C@@H](O)[C@@H]2O [estetrol, 1,3,5 (10)-estratrien-3,15α,16α,17β-tetrol] |  |  | high and dose-proportional | about 28 hours | prevented tumour development | binds highly selective to the estrogen receptors with preference for the ERα form of the receptor | anti-estrogenic effect | does not bind | comparable or even superior to orally administered estetrol | earlier bioavailability compared to orally administered estetrol | less impact on a liver function parameter | does not stimulate the production of SHBG | exhibited estrogenic effects on the vagina, the uterus (both myometrium and endometrium), body weight, bone mass, bone strength, hot flushes and on ovulation (inhibition)
